Experimental data taken from US11840707B2, “Co-culture system and method for in vitro assessment of reverse cholesterol transport” (INSTITUT DE CARDIOLOGIE DE MONTREAL, priority 2016, dated 2023).

Tests used:
[1] = test system: HepG2 hepatocytes; experiment: Co-culture assay: Specific Chol Uptake into HepG2 hepatocytes on insert membrane; type: cell-based, human; details: for reduction of hepatic Specific Chol Uptake: 10 μM, HepG2 overnight and during co-culture
From the text: (§1) Total Chol Efflux is the sum of co-culture medium counts plus hepatic counts, while Total Chol Uptake is defined as hepatic counts only. Both Chol Efflux and Chol Uptake are expressed as % of total counts in the system. Background values, corresponding to basal co-culture medium (without acceptors), can be subtracted from the corresponding values in presence of acceptors to obtain Specific Chol Efflux (%) and Specific Chol Uptake (%) values.
(§2) Simultaneous Measurement of Cholesterol Flux Between Cholesterol-Loaded, ^3H-Cholesterol-Labeled J774 Cells and Target HepG2 Hepatocytes in a Transwell-Clear™ Insert.
(§3) J774 cells were seeded at a density of 8,000 cells per cm^2 in 1 mL of Dulbecco's minimal essential medium (DMEM, high glucose) and supplemented with 10% fetal bovine serum (FBS) and 1% penicillin/streptomycin in standard 12-well (3.8 cm^2) flat bottom plates (Corning).
(§4) Transwell-Clear™ 12-well plates (Corning, cat. #3642), each consisting of 12 cylindrical cell culture inserts (1.12 cm^2 insert/well) were bathed with 2 mL Eagle's minimal essential medium (EMEM, low glucose) distributed as follows: 0.5 mL in the insert and 1.5 mL in the well. Loaded plates were pre-incubated in an incubator at 37° C. with 5% CO2 for 30-45 min without cells in order to improve later cell attachment and maximize cell spreading on the insert membrane during cell culture. After pre-incubation, the media was removed. The wells of the Transwell plates were then filled with 1.5 mL of EMEM (low glucose) supplemented with 10% FBS and 1% penicillin/streptomycin and HepG2 cells were seeded at a density of 60,000 cells per cm^2 in 0.5 mL EMEM (low glucose) supplemented with 10% FBS and 1% penicillin/streptomycin on each insert.
(§5) Following seeding in plates or inserts, both cell types were placed in a cell incubator at 37° C. filled with humidified air and 5% CO2 and incubated for 72 h.
(§6) Following the 72-hour incubation and achieving a J774 cell confluence of 70-80%, the J774 cells were washed with 1 mL per well of PBS at 20° C. After the wash, 1 mL of Labeling Medium was added to each well. The Labeling Medium contained: 1% FBS, 1% penicillin/streptomycin, 2 μCi/mL of ^3H-cholesterol (Perkin-Elmer, NET139005MC), 50 μg protein/mL of acetylated LDL (acLDL) and DMEM (high glucose). The cells were then incubated for 24 hr at 37° C. in a cell incubator filled with humidified air and 5% CO2. One plate served as a reference to determine the labeled-cholesterol level in cells prior to co-culture assay.
(§7) Following the 72-hour incubation, the culture medium was removed from HepG2 cells grown on the insert membrane and replaced with 2 mL of fresh EMEM (low glucose) supplemented with 10% FBS and 1% penicillin/streptomycin. The cells were then incubated for an additional 24 hours at 37° C. in an incubator filled with humidified air and 5% CO2.
(§8) Following the 24-hour incubation of J774 cells, the labeling medium was removed from the plates and discarded. The cells were then washed with 1 mL of phosphate-buffered saline (PBS) at 20° C. and replaced with Equilibration Medium containing: DMEM (high glucose), 0.2% Bovine Serum Albumin (BSA) (low endotoxin, fatty acid-free, Sigma, cat. #A8806) and the appropriate Treatment under study. The J774 culture was then incubated for 24 hours.
(§9) J774 cells ongoing the ^3H-cholesterol equilibration phase and/or HepG2 cells before co-culture can be treated by various means. Pharmacological agent is diluted in the appropriate culture medium with 0.2% BSA and vehicle (solvent) is tested in parallel. Modulation of gene expression is also accomplished at this step, by transfection of siRNA according to the manufacturer's protocol, and a control non-silencing RNA is tested in parallel.
After 24 hour of incubation, equilibration medium from J774 culture and culture medium from HepG2 cells were discarded. Cells were washed with 1 mL (J774) or 2 mL (HepG2) of PBS at 20° C. and the wash medium discarded.

[2] = test system: J774 macrophages; experiment: Co-culture assay: Specific Chol Efflux from 3H-cholesterol-labeled J774 macrophages; type: cell-based, murine
From the text: as §1, §2, §3
as §4, with “Loaded” for “Transwell-Clear™ 12-well plates (Corning, cat. #3642), each consisting of 12 cylindrical cell culture inserts (1.12 cm^2 insert/well) were bathed with 2 mL Eagle's minimal essential medium (EMEM, low glucose) distributed as follows: 0.5 mL in the insert and 1.5 mL in the well. Loaded”
as §5, §6, §7, §8, §9
After 24 hour of incubation, equilibration medium from J774 culture and culture medium from HepG2 cells were discarded. Cells were washed with 1 mL (J774) or 2 mL (HepG2) of PBS at 20° C. and the wash medium discarded. Transwell inserts containing HepG2 cells were removed and transferred to each well containing the J774 culture. 2 mL of co-culture media (DMEM without phenol red, high glucose, 4.5 g/L) were added to each well. The resulting co-culture system was incubated in a cell incubator at 37° C. for 24 hours.

[3] = J774 pre-treated overnight 10 μM, acceptors HS and DHS, vs vehicle DMSO
[4] = 24 h co-culture, one-site non-linear regression
[5] = purified acceptor, 24 h co-culture, one-site non-linear regression
[6] = 10 nM in co-culture medium for 24 h, acceptor complete human serum

Compound: CCOC(=O)N1c2ccc(C(F)(F)F)cc2[C@@H](N(Cc2cc(C(F)(F)F)cc(C(F)(F)F)c2)C(=O)OC)C[C@H]1CC [torcetrapib]
- reduction of hepatic Specific Chol Uptake ([1]; acceptor apoB-depleted serum): 21%
- reduction of hepatic Specific Chol Uptake ([1]; acceptor apoB-depleted serum, listed as Torcetrapib): reduced
- reduction of hepatic Specific Chol Uptake ([1]; acceptor complete serum): 31%
- reduction of hepatic Specific Chol Uptake ([1]; acceptor complete serum, listed as Torcetrapib): reduced
- effect on Specific Efflux ([2]; 10 μM, HepG2 overnight and during co-culture, acceptors HS and DHS): did not affect

Compound: O=S(=O)(c1ccccc1)N(CC(F)(F)F)c1ccc(C(O)(C(F)(F)F)C(F)(F)F)cc1 [TO901317]
- effect on Specific Chol Uptake [1, 3]: increased
- effect on Specific Chol Efflux [2, 3]: increased

Compound: ApoA-I: human apolipoprotein A-I, purified, used as Chol acceptor
- Bmax (maximal flux), Specific Uptake [1, 4]: 0.83 ± 0.03%
- kA (affinity constant), Specific Uptake [1, 5]: 7.0 ± 1.0 μg protein/mL
- Bmax (maximal flux), Specific Efflux [2, 4]: 15.9 ± 0.9%
- Specific Chol Efflux compared to LDL ([2]; acceptor at 100 μg/ml, 24 h co-culture): higher
- kA (affinity constant), Specific Efflux [2, 5]: 7.2 ± 1.4 μg protein/mL

Compound: PCSK9 D374Y: purified human PCSK9 gain-of-function D374Y mutant protein
- effect on Specific Chol Uptake [1, 6]: markedly reduced
- effect on Specific Chol Efflux [2, 6]: no effect
- effect on Specific Chol Efflux ([2]; 10 nM in co-culture medium for 24 h, acceptor complete human serum, listed as purified PCSK9 mutant): did not influence

Compound: CC[C@H](C)C(=O)O[C@H]1CCC=C2C=C[C@H](C)[C@H](CC[C@@H]3C[C@@H](O)CC(=O)O3)[C@H]21 [mevastatin]
- effect on Specific Chol Uptake ([1]; HepG2 pre-treated overnight 25 μM, acceptor apoB-depleted serum): reduced effect
- effect on Specific Chol Uptake ([1]; HepG2 pre-treated overnight 25 μM, acceptor complete human serum): significantly increased
- effect on Chol Uptake ([1]; hepatocytes pre-treated 10 μM, acceptor apoB-depleted serum, compared to complete serum): reduced effect
- effect on hepatic Chol Uptake ([1]; hepatocytes pre-treated 10 μM, acceptor complete human serum): increased
- effect on Specific Chol Efflux ([2]; HepG2 pre-treated overnight 25 μM, acceptor human serum): did not change
- effect on Chol Efflux to human serum ([2]; hepatocytes pre-treated 10 μM, acceptor human serum): no effect
